# Reference: patent US20250171437A1 (Agios Pharmaceuticals,Inc., priority 2022, published 2025)
# Biological target: T1, human PAH with the R408W mutation (A375 R408W cells) (Homo sapiens, UniProt P00439, R408W)
# T1 construct: expressed in transfected cells
# T1 sequence (P00439 1-452 R408W): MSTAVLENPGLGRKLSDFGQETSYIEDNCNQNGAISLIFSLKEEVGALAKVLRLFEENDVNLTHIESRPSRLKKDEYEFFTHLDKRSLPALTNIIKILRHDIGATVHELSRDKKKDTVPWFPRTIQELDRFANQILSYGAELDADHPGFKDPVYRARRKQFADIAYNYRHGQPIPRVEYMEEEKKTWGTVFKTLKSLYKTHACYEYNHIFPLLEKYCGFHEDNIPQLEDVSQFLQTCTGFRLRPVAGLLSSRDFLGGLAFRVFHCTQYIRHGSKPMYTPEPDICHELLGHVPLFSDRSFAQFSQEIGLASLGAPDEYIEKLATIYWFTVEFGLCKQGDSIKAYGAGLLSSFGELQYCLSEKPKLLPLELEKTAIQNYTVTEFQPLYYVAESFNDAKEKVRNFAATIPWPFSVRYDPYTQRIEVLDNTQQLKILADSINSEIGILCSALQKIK
# Assay: Cell Based Phenylalanine Flux Assay
# Settings: A375 R408W cells; 24 hrs with compound, then 20 μM sepiapterin and 800 μM 13C9,15N-Phenylalanine for 4 hours; 13C-Tyrosine by LC-MS; average where tested multiple times
# In short: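 Phenylalanine-to-tyrosine flux is measured in A375 cells carrying stable human R408W PAH. After 24 h compound exposure, 13C9,15N-Phe (800 μM) with sepiapterin (20 μM) is supplied for 4 h and media 13C-Tyr is read by LC-MS; AC50s are binned.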
row,Structure (SMILES),AC50 [nM]
1,"Cn1ccc(-c2nnc(C(=O)N3CCc4[nH]cnc4[C@@H]3c3nc4ccccc4o3)o2)n1 [Example 844, (R)-(4-(benzo[d]oxazol-2-yl)-6,7-dihydro-1H-imidazo[4,5-c]pyridin-5(4H)-yl)(5-(1-methyl-1H-pyrazol-3-yl)-1,3,4-oxadiazol-2-yl)methanone]",500 to 1000
2,"O=C(c1oc(-c2cnccn2)nc1C(F)F)N1CCc2[nH]cnc2[C@H]1c1nc2cccc(F)c2o1 [Example 693, (S)-(4-(difluoromethyl)-2-(pyrazin-2-yl)oxazol-5-yl)(4-(7-fluorobenzo[d]oxazol-2-yl)-6,7-dihydro-1H-imidazo[4,5-c]pyridin-5(4H)-yl)methanone]",≤ 500
3,"Cn1ccc(-c2nc(C(F)(F)F)c(C(=O)N3CCc4[nH]cnc4[C@H]3c3nc4cc(F)ccc4o3)o2)n1 [Example 787, (S)-(4-(5-fluorobenzo[d]oxazol-2-yl)-6,7-dihydro-1H-imidazo[4,5-c]pyridin-5(4H)-yl)(2-(1-methyl-1H-pyrazol-3-yl)-4-(trifluoromethyl)oxazol-5-yl)methanone]",≤ 500
4,"Cc1ccc2oc([C@@H]3c4nc[nH]c4CCN3C(=O)c3oc(C(C)(C)O)nc3Br)nc2c1 [Example 407, (S)-(4-bromo-2-(2-hydroxypropan-2-yl)oxazol-5-yl)(4-(5-methylbenzo[d]oxazol-2-yl)-6,7-dihydro-1H-imidazo[4,5-c]pyridin-5(4H)-yl)methanone]",≤ 500
5,"CN1CCN(c2ccc3c(C(=O)N4CCc5[nH]cnc5[C@H]4c4nc5cc(F)ccc5o4)cnn3c2)CC1 [Example 65, (S)-(4-(5-fluorobenzo[d]oxazol-2-yl)-6,7-dihydro-1H-imidazo[4,5-c]pyridin-5(4H)-yl)(6-(4-methylpiperazin-1-yl)pyrazolo[1,5-a]pyridin-3-yl)methanone]",1000 to 5000
6,"O=C(c1cnn2cc(N3CCC(O)CC3)ccc12)N1CCc2[nH]cnc2[C@H]1c1nc2cccc(F)c2o1 [Example 371, (S)-(4-(7-fluorobenzo[d]oxazol-2-yl)-6,7-dihydro-1H-imidazo[4,5-c]pyridin-5(4H)-yl)(6-(4-hydroxypiperidin-1-yl)pyrazolo[1,5-a]pyridin-3-yl)methanone]",500 to 1000
7,"Cn1nccc1-c1nnc(C(=O)N2CCc3[nH]cnc3[C@@H]2c2nc3cc(F)ccc3o2)o1 [Example 132, (R)-(4-(5-fluorobenzo[d]oxazol-2-yl)-6,7-dihydro-1H-imidazo[4,5-c]pyridin-5(4H)-yl)(5-(1-methyl-1H-pyrazol-5-yl)-1,3,4-oxadiazol-2-yl)methanone]",1000 to 5000
8,"Cc1cc(F)cc2nc([C@H]3c4nc[nH]c4CCN3C(=O)c3oc(C(C)(C)O)nc3C(F)F)oc12 [Example 656, (R)-(4-(difluoromethyl)-2-(2-hydroxypropan-2-yl)oxazol-5-yl)(4-(5-fluoro-7-methylbenzo[d]oxazol-2-yl)-6,7-dihydro-1H-imidazo[4,5-c]pyridin-5(4H)-yl)methanone]",1000 to 5000
9,"O=C(c1ocnc1C(F)F)N1CCc2[nH]cnc2[C@H]1c1nc2cc(F)ccc2o1 [Example 51, (S)-(4-(difluoromethyl)oxazol-5-yl)(4-(5-fluorobenzo[d]oxazol-2-yl)-6,7-dihydro-1H-imidazo[4,5-c]pyridin-5(4H)-yl)methanone]",≤ 500
10,"CC(C)(O)c1nc(C(F)F)c(C(=O)N2CCc3[nH]cnc3[C@H]2c2nc3ccccc3o2)o1 [Example 470, (S)-(4-(benzo[d]oxazol-2-yl)-6,7-dihydro-1H-imidazo[4,5-c]pyridin-5(4H)-yl)(4-(difluoromethyl)-2-(2-hydroxypropan-2-yl)oxazol-5-yl)methanone]",≤ 500
11,"O=C(c1nnc(-c2ccccn2)o1)N1CCc2[nH]cnc2[C@H]1c1nc2ccc(F)cc2o1 [Example 303, (S)-(4-(6-fluorobenzo[d]oxazol-2-yl)-6,7-dihydro-1H-imidazo[4,5-c]pyridin-5(4H)-yl)(5-(pyridin-2-yl)-1,3,4-oxadiazol-2-yl)methanone]",≤ 500
12,"CC(C)(O)C1CCN(c2ccc3c(C(=O)N4CCc5[nH]cnc5[C@@H]4c4nc5c(F)cccc5o4)cnn3c2)CC1 [Example 508, (R)-(4-(4-fluorobenzo[d]oxazol-2-yl)-6,7-dihydro-1H-imidazo[4,5-c]pyridin-5(4H)-yl)(6-(4-(2-hydroxypropan-2-yl)piperidin-1-yl)pyrazolo[1,5-a]pyridin-3-yl)methanone]",≥ 5000
13,"Cc1nc(C(C)(C)C#N)oc1C(=O)N1CCc2[nH]cnc2[C@@H]1c1nc2cc(F)ccc2o1 [Example 186, (R)-2-(5-(4-(5-fluorobenzo[d]oxazol-2-yl)-4,5,6,7-tetrahydro-1H-imidazo[4,5-c]pyridine-5-carbonyl)-4-methyloxazol-2-yl)-2-methylpropanenitrile]",1000 to 5000

# Same assay, conditions: A375 cells expressing R408W PAH; 24 hrs with compound, then 20 μM sepiapterin and 800 μM 13C9,15N-Phenylalanine for 4 hours; 13C-Tyrosine by LC-MS; average where tested multiple times
row,Structure (SMILES),AC50 [nM]
1,CN(C)CCOc1ccc2c(C(=O)N3CCc4[nH]cnc4C3c3nc4cc(F)ccc4o3)cnn2c1 (stereo not drawn),1000 to 5000
2,Cc1ccc2nc(C3c4nc[nH]c4CCN3C(=O)c3nnc(C(C)(C)O)o3)oc2c1 (stereo not drawn),1000 to 5000
3,O=C(c1cncs1)N1CCc2[nH]cnc2C1c1nc2cc(F)ccc2o1 (stereo not drawn),≥ 5000
4,Cn1nc(N)cc1C(=O)N1CCc2[nH]cnc2C1c1nc2cc(F)ccc2o1 (stereo not drawn),≥ 5000
5,Cc1nc(C(C)O)oc1C(=O)N1CCc2[nH]cnc2C1c1nc2cc(F)ccc2o1 (stereo not drawn),≥ 5000
6,COc1cccc2nc(C3c4nc[nH]c4CCN3C(=O)c3nc(C(C)(C)C)nn3C)oc12 (stereo not drawn),1000 to 5000
7,CC(C)(O)c1ncc(C(=O)N2CCc3[nH]cnc3C2c2nc3cc(F)cc(F)c3o2)o1 (stereo not drawn),1000 to 5000
8,Cc1nc(C(C)O)oc1C(=O)N1CCc2[nH]cnc2C1c1nc2c(F)cccc2o1 (stereo not drawn),≥ 5000
